According to patent US8178091B2, “Compositions and methods for the treatment of respiratory disorders” (University of Washington, priority 2007, dated 2012):
“Also recorded” adds a separate entry of the source. Where two headings read alike, the source gives them in different places.

Assays:
[1] = target: T1, IGF-1R (Homo sapiens, UniProt P08069); details: cited from earlier work
[2] = target: T1, IGF-1R; details: cited from earlier work; remark: listed apart in the source
[3] = oxidation; cited from earlier work
[4] = system: PDGFR; details: intact cells; cited from earlier work
[5] = system: primary mouse lung fibroblasts; test: migration assay (FluoroBlok transwell); type: cell-based, C57BL6 mice
Description: Mouse lung fibroblasts were plated FluoroBlok transwell filters overnight, then IGF-1 (100 ng/ml), serum free media (negative control), 10% serum (positive control) was added to lower chamber. Some cells were preincubated with the blocking antibody to IGF-1R (A12, 40 μg/ml) before the addition of IGF-1. Cells were allowed to migrate through membrane for 4 hours @ 37° C. Migrated cells were counted with Fluorescent microscope. Each experiments was done in triplicate and repeated at least three times. Average cell count ±SD are presented.
For migration assays, primary mouse lung fibroblasts (50,000 cells/well) were plated in serum-free medium overnight on Fluoroblok transwell filters (8 μm pores, HTS FluoroBlok™ 24-Multiwell Insert System, BD Bioscience, Bedford, Mass.) pre-coated with fibronectin (50 μg/ml). Fluoroblok microporous membranes are specifically designed to detect by fluorescence only cells below the surface membrane. IGF-1 (100 ng/ml), 10% FBS (positive control) or serum-free media (negative control) was added to lower chamber. In some experiments, cells were preincubated with the blocking antibody to IGF-1R (A12, 40 μg/ml), for 1 hour. After 4 hours of migration, filters were fixed with formaldehyde and stained with DAPI (4′6-Diamidine-2′-phenylindole dihydrochloride, Roche, Indianapolis, Ind.). Migrated cells were counted in three predesignated fields for each filter. All experiments were done in triplicate and repeated at least three times.

[6] = target: T1, IGF-1R; details: cited from earlier work; remark: listed apart in the source
[7] = target: IR (Homo sapiens, UniProt P06213); details: even at high concentrations; cited from earlier work
IR (Homo sapiens, UniProt P06213), sequence (P06213 28-1382): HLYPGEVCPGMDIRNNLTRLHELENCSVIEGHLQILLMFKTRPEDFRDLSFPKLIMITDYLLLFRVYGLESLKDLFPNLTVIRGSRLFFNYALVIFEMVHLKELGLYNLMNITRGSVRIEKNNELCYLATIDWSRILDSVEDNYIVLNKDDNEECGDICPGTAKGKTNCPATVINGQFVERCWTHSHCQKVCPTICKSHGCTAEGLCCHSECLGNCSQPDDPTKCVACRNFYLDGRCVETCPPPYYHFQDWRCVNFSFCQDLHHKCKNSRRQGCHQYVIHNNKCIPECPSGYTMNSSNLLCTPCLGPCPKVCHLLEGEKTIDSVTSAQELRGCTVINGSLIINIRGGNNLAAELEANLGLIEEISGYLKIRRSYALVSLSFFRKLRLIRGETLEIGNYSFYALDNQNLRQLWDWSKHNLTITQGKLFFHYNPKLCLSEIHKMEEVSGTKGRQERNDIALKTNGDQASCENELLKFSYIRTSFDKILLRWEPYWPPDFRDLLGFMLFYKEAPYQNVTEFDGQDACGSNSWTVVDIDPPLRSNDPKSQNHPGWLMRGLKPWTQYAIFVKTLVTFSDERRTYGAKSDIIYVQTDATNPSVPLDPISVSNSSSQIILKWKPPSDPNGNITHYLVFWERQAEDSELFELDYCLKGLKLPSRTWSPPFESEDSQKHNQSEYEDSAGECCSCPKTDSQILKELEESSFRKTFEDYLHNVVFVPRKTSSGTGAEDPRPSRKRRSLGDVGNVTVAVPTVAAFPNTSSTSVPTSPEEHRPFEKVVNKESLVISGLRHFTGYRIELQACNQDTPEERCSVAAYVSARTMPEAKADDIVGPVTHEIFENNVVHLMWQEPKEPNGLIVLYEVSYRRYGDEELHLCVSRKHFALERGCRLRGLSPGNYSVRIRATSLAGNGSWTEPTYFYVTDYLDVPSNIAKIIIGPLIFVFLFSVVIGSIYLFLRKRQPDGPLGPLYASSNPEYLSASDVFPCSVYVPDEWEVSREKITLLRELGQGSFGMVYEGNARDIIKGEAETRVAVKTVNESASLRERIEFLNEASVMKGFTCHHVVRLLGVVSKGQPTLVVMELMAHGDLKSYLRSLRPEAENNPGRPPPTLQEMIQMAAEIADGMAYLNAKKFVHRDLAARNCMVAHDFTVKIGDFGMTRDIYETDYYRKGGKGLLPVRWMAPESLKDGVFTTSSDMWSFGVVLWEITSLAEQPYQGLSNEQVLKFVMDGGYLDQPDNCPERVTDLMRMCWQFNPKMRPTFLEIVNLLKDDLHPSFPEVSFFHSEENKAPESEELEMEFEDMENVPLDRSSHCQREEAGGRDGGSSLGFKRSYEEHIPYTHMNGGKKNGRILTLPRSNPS

[8] = rats; cited from earlier work
[9] = system: IGF-1R-positive tumors; details: mice; cited from earlier work
[10] = system: β-tubulin; details: interaction with β-tubulin, mitotic arrest; cited from earlier work
[11] = system: tumors; details: nude mice; cited from earlier work
[12] = target: T1, IGF-1R; details: cited from earlier work; remark: listed apart in the source
[13] = system: IR; details: in vivo; cited from earlier work
[14] = system: primary mouse lung fibroblasts; test: proliferation assay (MTT); type: cell-based, C57BL6 mice
Description: Mouse lung fibroblasts from saline-treated mice (A) or bleomycin-treated mice (B) were plated in triplicate and serum-starved overnight followed by addition of IGF-1 (100 ng/ml), serum-free media (negative control), 10% FBS (positive control), and then incubated for indicated time. Cell proliferation was measured by MTT assay. Data are shown as mean OD570 nm±SD and are average of at least 4 independent experiments.
For proliferation assays, primary mouse lung fibroblasts were plated at 10,000 cells/100 μl in 96-well plates. After initial adhesion, medium was changed to serum free overnight and then IGF-1 (100 ng/ml) was added. As a positive control, cells were grown in 10% FBS; as a negative control, cell were grown in serum-free media. Cell proliferation was assayed at 48, 72 or 96 hours by colorimetric methyl thiazolyl tetrazolium (MTT) assay per manufacturer's direction (Qiang et al., Blood 103:301-308 (2004)). Optical density of plates was read on a Spectra Max 250 (Molecular Device, Sunnyvale, Calif.) at 570 nm. All experiments were done in triplicate and repeated three times.

[15] = system: mouse lung fibroblasts; test: Western blot of signaling in IGF-stimulated lung fibroblasts; type: cell-based; details: IGF-1 100 ng/ml
Description: Tyrosine phosphorylation of receptor tyrosine kinase substrates was evaluated. Mouse lung fibroblasts were serum-starved overnight and then stimulated with IGF-1 (100 ng/ml) for indicated times. Cells were lysed, and proteins separated by SDS-PAGE. Each membrane was blotted with indicated phospho-antibody then stripped and reblotted with antibody to total protein. Substrates include IGF-1R, IRS-1 and IRS-2. The tyrosine phosphorylated forms of the substrates are indicated by pIGF-1R, pIRS-1 and pIRS-2, respectively.
Tyrosine phosphorylation of receptor tyrosine kinase substrates was evaluated. Substrates include AKT, ERK. The tyrosine phosphorylated forms of the substrates are indicated by pAKT, pERK, respectively.
For Western Blot analyses, cells were grown to 70% confluence, placed in serum free medium overnight and then IGF-1 (100 ng/ml) was added for 5, 10, 15, 30 and 60 minutes. At indicated time points, cells were washed in ice-cold PBS and lysed in buffer containing 100 mM Tri-HCl (pH 7.4), 150 mM NaCl, 1 mM CaCl2, 0.1% SDS, 1% Triton-X, 0.1% NP-40, 1 mM […] (sodium vanadate), 1 mM NaF (sodium Fluoride) and protease inhibitor cocktail tablet (Roche). Protein concentrations were determined by the BCA assay (Pierce). Equal amounts of protein were separated by sodium dodecyl sulfate-polyacrylamide gel electrophoresis (SDS-PAGE), and electrophoretically transferred to PVDF membrane. Membranes were blocked with 5% nonfat dry milk/0.05% Tween-20/PBS for 2 hours, incubated with primary antibody for 2 hours at room temperature, washed with 0.05% Tween-20/PBS, incubated with horseradish peroxidase-conjugated secondary antibody (1:5000) for 2 h, washed with 0.05% Tween-20/PBS and then developed with enhanced chemiluminescence (ECL) technique (Amersham, England).

[16] = system: primary normal human lung fibroblasts; test: apoptosis assay (Cell Death Detection ELISA-plus), lung fibroblasts; type: cell-based; details: serum starvation, increasing concentrations
Description: (§1) A: Normal human lung fibroblast or distal lung epithelial cells were serum-starved overnight and then incubated with indicated concentration of IGF-1R antibody or IGFBP-3 overnight. B: A549 cells were serum-starved and incubated with IGF-1R antibody (136 μg/ml) with or without the indicated concentration of Fas ligand. Apoptosis was measured by Cell Death ELISA-plus ELISA (Roche Applied Science) per the manufacturer's directions. All experiments were done in triplicate and repeated at least twice. Apoptosis index is defined as the ratio of experimental condition OD405 nm: control (media alone) OD405 nm.
(§2) Primary normal human lung fibroblasts (Clonetics, Cambrex Bioscience, Rockland, Me.), primary distal lung human epithelial cells (Clonetics) or A549 (American Type Culture Collection, Manassas, Va.) were seeded in a 96-well tissue culture plate (2×10^4 cells/well) overnight and serum-starved for 24 hours. […] After 48 hours, apoptosis was measured. To prevent detached cells from being aspirated, plates were centrifuged at 200×g for 10 minutes, and apoptosis was measured using the Cell Death Detection ELISA-plus System (Roche Applied Science, Penzberg, Germany), which detects cytosolic histone-complexed DNA fragments. […]

[17] = system: primary distal lung human epithelial cells; test: apoptosis assay (Cell Death Detection ELISA-plus), lung epithelial cells; type: cell-based; details: serum starvation, increasing concentrations
Description: as §1, §2

[18] = system: human IGF-1R mRNA; details: cited from earlier work

T1 sequence (P08069 31-1367, species assumed): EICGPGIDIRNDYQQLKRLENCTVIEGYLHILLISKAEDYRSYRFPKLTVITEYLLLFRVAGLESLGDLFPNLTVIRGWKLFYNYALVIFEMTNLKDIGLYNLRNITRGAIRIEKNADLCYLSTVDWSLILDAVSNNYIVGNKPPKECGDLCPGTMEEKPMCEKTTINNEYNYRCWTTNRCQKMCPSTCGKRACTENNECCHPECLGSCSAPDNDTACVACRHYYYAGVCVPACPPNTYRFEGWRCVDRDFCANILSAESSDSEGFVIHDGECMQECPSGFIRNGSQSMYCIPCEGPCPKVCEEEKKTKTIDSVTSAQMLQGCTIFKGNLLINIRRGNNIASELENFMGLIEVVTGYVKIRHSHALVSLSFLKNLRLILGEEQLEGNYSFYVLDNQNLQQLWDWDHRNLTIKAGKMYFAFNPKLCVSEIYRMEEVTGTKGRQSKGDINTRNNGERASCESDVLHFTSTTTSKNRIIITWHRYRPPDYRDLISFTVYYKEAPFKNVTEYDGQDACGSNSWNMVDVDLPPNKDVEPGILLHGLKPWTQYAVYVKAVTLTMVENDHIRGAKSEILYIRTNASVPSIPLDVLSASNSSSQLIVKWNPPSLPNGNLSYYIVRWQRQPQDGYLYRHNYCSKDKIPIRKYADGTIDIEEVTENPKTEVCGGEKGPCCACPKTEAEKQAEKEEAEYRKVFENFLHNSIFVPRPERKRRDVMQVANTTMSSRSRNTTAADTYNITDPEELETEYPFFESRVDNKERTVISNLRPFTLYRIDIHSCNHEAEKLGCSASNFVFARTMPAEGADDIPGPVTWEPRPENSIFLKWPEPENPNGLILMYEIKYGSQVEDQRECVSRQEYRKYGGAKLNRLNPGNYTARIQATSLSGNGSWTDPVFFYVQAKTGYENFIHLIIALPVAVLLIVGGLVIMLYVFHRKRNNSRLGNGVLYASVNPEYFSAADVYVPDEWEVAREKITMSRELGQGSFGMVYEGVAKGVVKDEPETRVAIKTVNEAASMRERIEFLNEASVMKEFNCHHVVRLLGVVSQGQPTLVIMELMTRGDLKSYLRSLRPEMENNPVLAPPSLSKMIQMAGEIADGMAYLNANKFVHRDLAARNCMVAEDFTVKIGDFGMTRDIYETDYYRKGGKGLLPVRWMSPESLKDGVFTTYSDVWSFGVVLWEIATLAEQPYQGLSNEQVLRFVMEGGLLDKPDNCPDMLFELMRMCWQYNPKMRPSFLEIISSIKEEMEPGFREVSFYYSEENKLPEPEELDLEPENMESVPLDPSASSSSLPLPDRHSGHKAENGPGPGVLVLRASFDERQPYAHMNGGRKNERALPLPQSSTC

N#C/C(=C\c1ccc(O)c(O)c1)C(=O)c1ccc(O)c(O)c1 [AG 538]
IC50 ([1]; cell free kinase assay, read-out: IC50 inhibition of IGF-1R): 0.061 µM | receptor autophosphorylation and activation of downstream targets PKB and Erk2 ([2]; cultured cells): inhibits receptor autophosphorylation | stability of catechol moiety [3]: unstable due to its vulnerability to oxidation

N#C/C(=C\c1ccc2oc(=O)[nH]c2c1)C(=O)c1ccc(O)c(O)c1 [AGL 2263]
activity relative to parent compound AG 538 in cell free assays ([1]; cell free assays): somewhat less active | activity relative to parent compound AG 538 in cell culture assays ([2]; cell culture assays): comparable to the parent compound | IC50 ([2]; intact cells, read-out: IC50 inhibiting the activation of PKB in intact cells): 6 µM | PKB activation by PDGFR [4]: did not affect

COc1cccc(-c2cc(=O)c3ccccc3o2)c1N [PD98059, reference compound]
effect on IGF-1-induced migration ([5]; IGF-1 100 ng/ml, A12 40 μg/ml preincubation): partially inhibited

COc1cc([C@@H]2c3cc4c(cc3[C@H](O)[C@H]3COC(=O)[C@@H]23)OCO4)cc(OC)c1OC [PPP, picropodophyllin]
IC50 on IGF-1R activity [6]: sub-micromolar | effect on IR activity [7]: did not affect IR activity | LD50 [8]: > 500 mg/kg | killing IGF-1R-positive tumors [9]: effective at killing IGF-1R-positive tumors

COc1cc([C@@H]2c3cc4c(cc3[C@H](O)[C@H]3COC(=O)[C@H]23)OCO4)cc(OC)c1OC [PPT, podophyllotoxin]
IC50 on IGF-1R activity [6]: sub-micromolar | effect on IR activity [7]: did not affect IR activity | cytotoxicity [10]: cytotoxic

COc1ccc(Cl)cc1NC(=O)Nc1cc(C)nc2ccccc12 [PQ401]
growth rate of tumors [11]: reduce the growth rate of tumors

CN1CCN([C@H]2C[C@@H](c3nc(-c4ccc5ccc(-c6ccccc6)nc5c4)c4c(N)nccn43)C2)CC1 [cis-3-[3-(4-methyl-piperazin-1-yl)-cyclobutyl]-1-(2-phenyl-quinolin-7-yl)-imidazo[1,5-a]pyrazin-8-ylamine]
IGF-1R activity in vivo [12]: inhibit IGF-1R activity in vivo | rise in blood sugar [13]: without causing any substantial rise in blood sugar

IGF-1: insulin-like growth factor 1, purchased from R&D Systems
increase in migration ([5]; IGF-1 100 ng/ml, FIG. 4): 1.8 fold | migration of MLF in response to IGF-1 ([5]; transwell filter, 4 hours, FIG. 5): increased migration | proliferation of normal mouse lung fibroblasts ([14]; IGF-1 50 or 100 ng/ml, serum-free, up to 96 h): did not increase proliferation; also recorded: increased proliferation was not observed | proliferation of activated fibroblasts derived from bleomycin-treated mice ([14]; data not shown): can induce proliferation | Akt phosphorylation [15]: phosphorylated in response to IGF-1 stimulation by 15 minutes and persisted until 60 minutes | ERK phosphorylation [15]: did not undergo phosphorylation | IRS-1 phosphorylation [15]: did not change | IRS-2 phosphorylation [15]: increased phosphorylation by 10 minutes that persisted until 30 minutes | time to IGF-1R phosphorylation [15]: ≤ 10 min

IGFBP-3: insulin-like growth factor-binding protein-3 (R&D Systems)
apoptosis of primary human lung fibroblasts [16]: increased apoptosis was not observed | apoptosis of primary lung epithelial cells [17]: increased apoptosis was not observed

siRNA 1: 5'-GGGACCCUCCUCCGGAGCCAG-3' (antisense; SEQ ID NO: 1) and 5'-GGCUCCGGAGGAGGGUCCCCG-3' (sense; SEQ ID NO: 2) (listed as RNA, chemistry not given here)
targeting of human IGF-1R mRNA [18]: effective to target human IGF-1R mRNA

siRNA 2: 5'-GGUCUUCUCACACAUCGGCUU-3' (antisense; SEQ ID NO: 3) and 5'-GCCGAUGUGUGAGAAGACCUU-3' (sense; SEQ ID NO: 4) (listed as RNA, chemistry not given here)
targeting of human IGF-1R mRNA [18]: effective to target human IGF-1R mRNA
